Entries after “also recorded” stand apart in the source; their conditions may differ. Each block holds one molecule with its values, some of them ahead of it.
Assays:
monocytes (monocyte-lin) = experiment: MLTA, Mono: concentration-response and QSP model fit; assay type: cell-based, human; conditions: Homo sapiens, Monocyte, 144 h; for EC50: QSP model fit of 6-day MLTA data; for activity at 0.0002 µM: dose 0.2 nM; for activity at 0.0002 µM / activity at 0.001 µM / activity at 0.005 µM / activity at 0.025 µM / activity at 0.1 µM / activity at 0.5 µM / activity at 2.5 µM: 6 days, normalized to vehicle control, read-out: Mon normalized cell count; for activity at 0.001 µM: dose 1 nM; for activity at 0.005 µM: dose 5 nM; for activity at 0.025 µM: dose 25 nM; for activity at 0.1 µM: dose 100 nM; for activity at 0.5 µM: dose 500 nM; for activity at 2.5 µM: dose 2500 nM; for Emax: parameter from QSP model fitting, read-out: Emax_drug_Mono
In short: (§1)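 Parameters come from fitting an Emax-based QSP model, with L1 regularization and Emax ranging 0–2, to vehicle-normalized, bead-corrected flow cytometry counts. Counts came from human bone marrow CD34+ cells treated from day 0 through a 6-day multi-lineage cytokine culture in SFEM II, using 2–7 donors per drug.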

[1] = tested on: human bone marrow-derived CD34+ cells differentiated into multiple hematopoietic lineages; experiment: MLTA, overall effects across hematopoietic lineages; assay type: cell-based
In short: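 Thawed primary human bone marrow CD34+ cells grown in SFEM II with a multi-lineage cytokine cocktail, drug added day 0, 6 days at 37°C, 5% CO2. Subsets counted by 17-parameter flow cytometry with TruCount beads, normalized to six vehicle wells per donor (2–7 donors); Emax model fitted per cell type.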

granulocytes (Gran-lin) = experiment: MLTA, Gran: concentration-response and QSP model fit; assay type: cell-based, human; conditions: Homo sapiens, 144 h; for activity at 0.0002 µM: dose 0.2 nM; for activity at 0.0002 µM / activity at 0.001 µM / activity at 0.005 µM / activity at 0.025 µM / activity at 0.1 µM / activity at 0.5 µM / activity at 2.5 µM: 6 days, normalized to vehicle control, read-out: Gran normalized cell count; for activity at 0.001 µM: dose 1 nM; for activity at 0.005 µM: dose 5 nM; for activity at 0.025 µM: dose 25 nM; for activity at 0.1 µM: dose 100 nM; for activity at 0.5 µM: dose 500 nM; for activity at 2.5 µM: dose 2500 nM; for Emax: parameter from QSP model fitting, read-out: Emax_drug_Gran
In short: as §1

[2] = tested on: neutrophils (neutrophil-lin); experiment: MLTA, Neut: concentration-response and QSP model fit; assay type: cell-based, human; conditions: Homo sapiens, Neutrophil, 144 h; for EC50: QSP model fit of 6-day MLTA data; for activity at 0.0002 µM: dose 0.2 nM; for activity at 0.0002 µM / activity at 0.001 µM / activity at 0.005 µM / activity at 0.025 µM / activity at 0.1 µM / activity at 0.5 µM / activity at 2.5 µM: 6 days, normalized to vehicle control, read-out: Neut normalized cell count; for activity at 0.001 µM: dose 1 nM; for activity at 0.005 µM: dose 5 nM; for activity at 0.025 µM: dose 25 nM; for activity at 0.1 µM: dose 100 nM; for activity at 0.5 µM: dose 500 nM; for activity at 2.5 µM: dose 2500 nM; for Emax: parameter from QSP model fitting, read-out: Emax_drug_Neut
In short: (§2)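 Freeze-thawed primary human bone marrow CD34+ cells were cultured 6 days in SFEM II with a cytokine cocktail, drug added on day 0. Subsets were counted by 17-parameter flow cytometry with TruCount beads and normalized to vehicle wells. An Emax QSP model (Emax 0–2, L1 regularization) was fitted to these counts.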

[3] = tested on: late erythroid cells (Eryth II); experiment: MLTA, ErythII: concentration-response and QSP model fit; assay type: cell-based, human; conditions: Homo sapiens, 144 h; for EC50: QSP model fit of 6-day MLTA data, read-out: EC50ErythII; for activity at 0.0002 µM: dose 0.2 nM; for activity at 0.0002 µM / activity at 0.001 µM / activity at 0.005 µM / activity at 0.025 µM / activity at 0.1 µM / activity at 0.5 µM / activity at 2.5 µM: 6 days, normalized to vehicle control, read-out: ErythII normalized cell count; for activity at 0.001 µM: dose 1 nM; for activity at 0.005 µM: dose 5 nM; for activity at 0.025 µM: dose 25 nM; for activity at 0.1 µM: dose 100 nM; for activity at 0.5 µM: dose 500 nM; for activity at 2.5 µM: dose 2500 nM; for Emax: parameter from QSP model fitting, read-out: Emax_drug_ErythroidII
In short: as §2

[4] = tested on: monocyte progenitors (monocyte prog); experiment: MLTA, MonoP: concentration-response and QSP model fit; assay type: cell-based, human; conditions: Homo sapiens, Monocyte, 144 h; for activity at 0.0002 µM: dose 0.2 nM; for activity at 0.0002 µM / activity at 0.001 µM / activity at 0.005 µM / activity at 0.025 µM / activity at 0.1 µM / activity at 0.5 µM / activity at 2.5 µM: 6 days, normalized to vehicle control, read-out: MonoPs normalized cell count; for activity at 0.001 µM: dose 1 nM; for activity at 0.005 µM: dose 5 nM; for activity at 0.025 µM: dose 25 nM; for activity at 0.1 µM: dose 100 nM; for activity at 0.5 µM: dose 500 nM; for activity at 2.5 µM: dose 2500 nM; for Emax: parameter from QSP model fitting, read-out: Emax_drug_MonoP
In short: as §1

[5] = tested on: total dead cells (totalDeadCells); experiment: MLTA, total dead cells concentration-response; assay type: cell-based; conditions: Homo sapiens, 144 h, 6 days, normalized to vehicle control, read-out: total_dead normalized cell count; for activity at 0.0002 µM: dose 0.2 nM; for activity at 0.001 µM: dose 1 nM; for activity at 0.005 µM: dose 5 nM; for activity at 0.025 µM: dose 25 nM; for activity at 0.1 µM: dose 100 nM; for activity at 0.5 µM: dose 500 nM; for activity at 2.5 µM: dose 2500 nM
In short: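 Freeze-thawed primary human bone marrow CD34+ cells in SFEM II with cytokine cocktail, drug added day 0, 6 days at 37°C, 5% CO2. Live/dead counts by 17-parameter flow cytometry with DAPI exclusion, bead-normalized, volume-corrected to cells/mL. Normalized per donor to mean of six vehicle wells; 2–7 donors pooled.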

[6] = tested on: hematopoietic stem cells (HSCs); experiment: Multi-lineage toxicity assay (MLTA), HSCs: concentration-response and QSP model fit; assay type: cell-based, human; parameters: EmaxAP,HSC / EmaxT,HSC / Emax_drug_HSC: unitless, 0–2; ≤1 anti-proliferative, >1 adds cell killing; conditions: for EC50 / activity at 0.0002 µM / activity at 0.001 µM / activity at 0.005 µM / activity at 0.025 µM / activity at 0.1 µM / activity at 0.5 µM / activity at 2.5 µM / Emax: Homo sapiens, Hematopoietic stem cell, 144 h; for EC50: QSP model fit of 6-day MLTA data; for activity at 0.0002 µM: dose 0.2 nM; for activity at 0.0002 µM / activity at 0.001 µM / activity at 0.005 µM / activity at 0.025 µM / activity at 0.1 µM / activity at 0.5 µM / activity at 2.5 µM: 6 days, normalized to vehicle control, read-out: HSCs normalized cell count; for activity at 0.001 µM: dose 1 nM; for activity at 0.005 µM: dose 5 nM; for activity at 0.025 µM: dose 25 nM; for activity at 0.1 µM: dose 100 nM; for activity at 0.5 µM: dose 500 nM; for activity at 2.5 µM: dose 2500 nM; for Emax: parameter from QSP model fitting, read-out: Emax_drug_HSC
In short: as §2

EC50 (monocytes (monocyte-lin)): 39.3 nM
EC50 [2]: 75 nM
EC50 [3]: 99.5 nM
Compound: CC(=O)c1c(C)c2cnc(Nc3ccc(N4CCNCC4)cn3)nc2n(C2CCCC2)c1=O [palbociclib]
activity at 0.0002 µM (monocytes (monocyte-lin)): 90%
activity at 0.001 µM (monocytes (monocyte-lin)): 106%
activity at 0.005 µM (monocytes (monocyte-lin)): 89.9%
activity at 0.025 µM (monocytes (monocyte-lin)): 58.8%
activity at 0.1 µM (monocytes (monocyte-lin)): 25.6%
activity at 0.5 µM (monocytes (monocyte-lin)): 13.2%
activity at 2.5 µM (monocytes (monocyte-lin)): 23.9%
Emax (monocytes (monocyte-lin)): 14.2%
EmaxT effects across cell types (overall statement) ([1]; QSP model fit, EmaxT > 1.0 = cell-killing): anti-proliferation effects on essentially just the HSCs and GMPs
activity at 0.0002 µM (granulocytes (Gran-lin)): 94.7%
activity at 0.001 µM (granulocytes (Gran-lin)): 93.9%
activity at 0.005 µM (granulocytes (Gran-lin)): 88.2%
activity at 0.025 µM (granulocytes (Gran-lin)): 53.9%
activity at 0.1 µM (granulocytes (Gran-lin)): 21.5%
activity at 0.5 µM (granulocytes (Gran-lin)): 4.56%
activity at 2.5 µM (granulocytes (Gran-lin)): 0.37%
Emax (granulocytes (Gran-lin)): 0.0335%
activity at 0.0002 µM [2]: 95.1%
activity at 0.001 µM [2]: 93.8%
activity at 0.005 µM [2]: 74.6%
activity at 0.025 µM [2]: 51.7%
activity at 0.1 µM [2]: 21.1%
activity at 0.5 µM [2]: 3.9%
activity at 2.5 µM [2]: 0.666%
Emax [2]: 18.4%
activity at 0.0002 µM [3]: 89%
activity at 0.001 µM [3]: 103%
activity at 0.005 µM [3]: 99.1%
activity at 0.025 µM [3]: 82.3%
activity at 0.1 µM [3]: 56.9%
activity at 0.5 µM [3]: 30.3%
activity at 2.5 µM [3]: 14.3%
Emax [3]: 11.8%
activity at 0.0002 µM [4]: 101%
activity at 0.001 µM [4]: 92.3%
activity at 0.005 µM [4]: 97.3%
activity at 0.025 µM [4]: 44.4%
activity at 0.1 µM [4]: 14.1%
activity at 0.5 µM [4]: 4.6%
activity at 2.5 µM [4]: 0.787%
Emax [4]: 0.0351%
activity at 0.0002 µM [5]: 101%
activity at 0.001 µM [5]: 102%
activity at 0.005 µM [5]: 103%
activity at 0.025 µM [5]: 64.6%
activity at 0.1 µM [5]: 40.5%
activity at 0.5 µM [5]: 28.9%
activity at 2.5 µM [5]: 22.7%
EC50 [6]: 166 nM
activity at 0.0002 µM [6]: 89.4%
activity at 0.001 µM [6]: 92%
activity at 0.005 µM [6]: 98.5%
activity at 0.025 µM [6]: 83.4%
activity at 0.1 µM [6]: 48.9%
activity at 0.5 µM [6]: 25%
activity at 2.5 µM [6]: 9.86%
Emax [6]: 77.6%
EmaxAP,HSC ([6]; anti-proliferation component, min(1, EmaxT)): 0.776

EC50 (monocytes (monocyte-lin)): 1020 nM
EC50 (granulocytes (Gran-lin); QSP model fit of 6-day MLTA data): 0.167 nM
EC50 [2]: 132 nM
EC50 [3]: 191 nM
EC50 ([4]; QSP model fit of 6-day MLTA data, read-out: EC50MonoP): 117 nM
Compound: CS(=O)(=O)N1CCN(Cc2cc3nc(-c4cccc5[nH]ncc45)nc(N4CCOCC4)c3s2)CC1 [pictilisib]
activity at 0.0002 µM (monocytes (monocyte-lin)): 92.5%
activity at 0.001 µM (monocytes (monocyte-lin)): 90.6%
activity at 0.005 µM (monocytes (monocyte-lin)): 79.5%
activity at 0.025 µM (monocytes (monocyte-lin)): 77.6%
activity at 0.1 µM (monocytes (monocyte-lin)): 61.1%
activity at 0.5 µM (monocytes (monocyte-lin)): 30.9%
activity at 2.5 µM (monocytes (monocyte-lin)): 12.5%
Emax (monocytes (monocyte-lin)): 3.93%
effect on hematopoietic cell numbers across cell types ([1]; 0.2-2500 nM, 6 days, relative to vehicle control): moderate reduction of cells types; also recorded: decreased most cell types
activity at 0.0002 µM (granulocytes (Gran-lin)): 99.2%
activity at 0.001 µM (granulocytes (Gran-lin)): 100%
activity at 0.005 µM (granulocytes (Gran-lin)): 90.3%
activity at 0.025 µM (granulocytes (Gran-lin)): 78.6%
activity at 0.1 µM (granulocytes (Gran-lin)): 51.4%
activity at 0.5 µM (granulocytes (Gran-lin)): 27.9%
activity at 2.5 µM (granulocytes (Gran-lin)): 9.84%
Emax (granulocytes (Gran-lin)): 23.2%
activity at 0.0002 µM [2]: 92.7%
activity at 0.001 µM [2]: 82.6%
activity at 0.005 µM [2]: 64.5%
activity at 0.025 µM [2]: 59.8%
activity at 0.1 µM [2]: 30.4%
activity at 0.5 µM [2]: 6.17%
activity at 2.5 µM [2]: 0.529%
Emax [2]: 16.5%
activity at 0.0002 µM [3]: 94.6%
activity at 0.001 µM [3]: 92%
activity at 0.005 µM [3]: 90%
activity at 0.025 µM [3]: 86.7%
activity at 0.1 µM [3]: 55.5%
activity at 0.5 µM [3]: 23.3%
activity at 2.5 µM [3]: 5.88%
Emax [3]: 13.6%
activity at 0.0002 µM [4]: 105%
activity at 0.001 µM [4]: 94.3%
activity at 0.005 µM [4]: 87.2%
activity at 0.025 µM [4]: 74.8%
activity at 0.1 µM [4]: 49%
activity at 0.5 µM [4]: 30.2%
activity at 2.5 µM [4]: 11.3%
Emax [4]: 140%
activity at 0.0002 µM [5]: 105%
activity at 0.001 µM [5]: 110%
activity at 0.005 µM [5]: 91.5%
activity at 0.025 µM [5]: 93.1%
activity at 0.1 µM [5]: 55.3%
activity at 0.5 µM [5]: 40.1%
activity at 2.5 µM [5]: 34.3%
EC50 [6]: 289 nM
activity at 0.0002 µM [6]: 89.1%
activity at 0.001 µM [6]: 102%
activity at 0.005 µM [6]: 88.5%
activity at 0.025 µM [6]: 99.2%
activity at 0.1 µM [6]: 58.1%
activity at 0.5 µM [6]: 28.1%
activity at 2.5 µM [6]: 8.09%
Emax [6]: 48.6%

From PMC7402526, “An in vitro quantitative systems pharmacology approach for deconvolving mechanisms of drug-induced, multilineage cytopenias” (PLoS Computational Biology, 2020)
